Test results: patent US20250324971A1, “HERBICIDAL DERIVATIVES” (SYNGENTA CROP PROTECTION AG, priority 2022, published 2025)

Tests used:
Assay type in all cases: in vivo
[1] = system: Amaranthus palmeri (AMAPA); experiment: Pre-Emergence Test (herbicidal, glasshouse pots); settings: evaluated after 13 days, five-point scale
[2] = system: Ipomoea hederacea (IPOHE); experiment: Post-Emergence Test (herbicidal, glasshouse pots); settings: evaluated after 13 days
Method in brief: (§1)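 Pots in glasshouse (24/16 °C, 14 h light, 65% RH), sprayed with a.i. in acetone/water 50:50 + 0.5% Tween 20; rate in g/ha. Watered twice daily; % damage read at 13 d, scored 5=81-100%, 4=61-80%, 3=41-60%, 2=21-40%, 1=0-20%.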

[3] = system: Amaranthus retoflexus (AMARE); experiment: Post-Emergence Test (herbicidal, glasshouse pots); settings: evaluated after 13 days
Method in brief: as §1

[4] = system: Setaria faberi (SETFA); experiment: Post-Emergence Test (herbicidal, glasshouse pots); settings: evaluated after 13 days
Method in brief: as §1

[5] = system: Amaranthus palmeri (AMAPA); experiment: Post-Emergence Test (herbicidal, glasshouse pots); settings: evaluated after 13 days
Method in brief: as §1

[6] = system: Zea mays (ZEAMX); experiment: Post-Emergence Test (herbicidal, glasshouse pots); settings: evaluated after 13 days
Method in brief: as §1

[7] = system: Echinochloa crus-galli (ECHCG); experiment: Post-Emergence Test (herbicidal, glasshouse pots); settings: evaluated after 13 days
Method in brief: as §1

[8] = system: Ipomoea hederacea (IPOHE); experiment: Pre-Emergence Test (herbicidal, glasshouse pots); settings: evaluated after 13 days, five-point scale
[9] = system: Setaria faberi (SETFA); experiment: Pre-Emergence Test (herbicidal, glasshouse pots); settings: evaluated after 13 days, five-point scale
[10] = system: Echinochloa crus-galli (ECHCG); experiment: Pre-Emergence Test (herbicidal, glasshouse pots); settings: evaluated after 13 days, five-point scale
[11] = system: Amaranthus retoflexus (AMARE); experiment: Pre-Emergence Test (herbicidal, glasshouse pots); settings: evaluated after 13 days, five-point scale
[12] = system: Zea mays (ZEAMX); experiment: Pre-Emergence Test (herbicidal, glasshouse pots); settings: evaluated after 13 days, five-point scale

Row | SMILES | percentage damage caused to the plant, AMAPA ([1]; rate 250 g/ha) | Post-Emergence Test IPHOE percentage damage (five-point scale) ([2]; rate 250 g/ha) | Post-Emergence Test AMARE percentage damage (five-point scale) ([3]; rate 250 g/ha) | Post-Emergence Test SETFA percentage damage (five-point scale) ([4]; rate 250 g/ha) | Post-Emergence Test AMAPA percentage damage (five-point scale) ([5]; rate 250 g/ha) | Post-Emergence Test ZEAMX percentage damage (five-point scale) ([6]; rate 250 g/ha) | Post-Emergence Test ECHCG percentage damage (five-point scale) ([7]; rate 250 g/ha) | percentage damage caused to the plant, IPHOE ([8]; rate 250 g/ha) | percentage damage caused to the plant, SETFA ([9]; rate 250 g/ha) | percentage damage caused to the plant, ECHCG ([10]; rate 250 g/ha) | percentage damage caused to the plant, AMARE ([11]; rate 250 g/ha) | percentage damage caused to the plant, ZEAMX ([12]; rate 250 g/ha) | also measured
1 | CCn1c(OC2CC2)cc(=O)c(C(=O)O)c1-c1ccc(Cl)c(Cl)c1 [Compound 45, 6-(cyclopropoxy)-2-(3,4-dichlorophenyl)-1-ethyl-4-oxo-pyridine-3-carboxylic acid] | 1 (1=0-20%) | 3 (3=41-60%) | 1 (1=0-20%) | 3 (3=41-60%) | 2 (2=21-40%) | 1 (1=0-20%) | 2 (2=21-40%) | 0 | 1 (1=0-20%) | 0 | 2 (2=21-40%) | 0 | –
2 | CCn1c(Oc2cc(C3CC3)on2)cc(=O)c(C(=O)O)c1-c1ccc(Cl)c(Cl)c1 [Compound 55, 6-(5-cyclopropylisoxazol-3-yl)oxy-2-(3,4-dichlorophenyl)-1-ethyl-4-oxo-pyridine-3-carboxylic acid] | 0 | 3 (3=41-60%) | 4 (4=61-80%) | 2 (2=21-40%) | 4 (4=61-80%) | 2 (2=21-40%) | 2 (2=21-40%) | 0 | 1 (1=0-20%) | 1 (1=0-20%) | 1 (1=0-20%) | 0 | –
3 | CCn1c(Oc2cccc(Cl)c2)cc(=O)c(C(=O)O)c1-c1ccc(Cl)c(Cl)c1 [Compound 2, 6-(3-chlorophenoxy)-2-(3,4-dichlorophenyl)-1-ethyl-4-oxo-pyridine-3-carboxylic acid] | – | – | – | – | – | – | – | – | – | – | – | – | percentage damage caused to the plant, AMAPA ([1]; rate 1000 g/ha): 1 (1=0-20%); Post-Emergence Test IPHOE percentage damage (five-point scale) ([2]; rate 1000 g/ha): 3 (3=41-60%); Post-Emergence Test AMARE percentage damage (five-point scale) ([3]; rate 1000 g/ha): 4 (4=61-80%); Post-Emergence Test SETFA percentage damage (five-point scale) ([4]; rate 1000 g/ha): 4 (4=61-80%); Post-Emergence Test AMAPA percentage damage (five-point scale) ([5]; rate 1000 g/ha): 4 (4=61-80%); Post-Emergence Test ZEAMX percentage damage (five-point scale) ([6]; rate 1000 g/ha): 3 (3=41-60%); Post-Emergence Test ECHCG percentage damage (five-point scale) ([7]; rate 1000 g/ha): 4 (4=61-80%); percentage damage caused to the plant, IPHOE ([8]; rate 1000 g/ha): 4 (4=61-80%); percentage damage caused to the plant, SETFA ([9]; rate 1000 g/ha): 5 (5=81-100%); percentage damage caused to the plant, ECHCG ([10]; rate 1000 g/ha): 4 (4=61-80%); percentage damage caused to the plant, AMARE ([11]; rate 1000 g/ha): 2 (2=21-40%); percentage damage caused to the plant, ZEAMX ([12]; rate 1000 g/ha): 2 (2=21-40%)
4 | CCc1cc(Oc2cc(=O)c(C(=O)O)c(-c3ccc(Cl)c(Cl)c3)n2CC)no1 [Compound 39, 2-(3,4-dichlorophenyl)-1-ethyl-6-(5-ethylisoxazol-3-yl)oxy-4-oxo-pyridine-3-carboxylic acid] | 1 (1=0-20%) | 2 (2=21-40%) | 1 (1=0-20%) | 1 (1=0-20%) | 1 (1=0-20%) | 0 | 1 (1=0-20%) | 1 (1=0-20%) | 1 (1=0-20%) | 1 (1=0-20%) | 1 (1=0-20%) | 0 | –
